Experimental data from patent US9249129B2, “Morpholino substituted urea derivatives as mTOR inhibitors” (CELLZOME LIMITED, priority 2010, dated 2016).

Legend:
Experiment in all cases: kinobeads assay with mass spectrometry detection of kinases (kinase selectivity profile)
Format in all cases: binding
[1] = biological target: T1, kinases (kinome) (Homo sapiens, UniProt Q15759); conditions: p38b (CMGC), IPI00019473
T1 construct: determined in kinobeads assays with mass spectrometry detection of kinases as described previously; endogenous in cells; host or cells: cell lysate
T1 sequence (Q15759 whole entry): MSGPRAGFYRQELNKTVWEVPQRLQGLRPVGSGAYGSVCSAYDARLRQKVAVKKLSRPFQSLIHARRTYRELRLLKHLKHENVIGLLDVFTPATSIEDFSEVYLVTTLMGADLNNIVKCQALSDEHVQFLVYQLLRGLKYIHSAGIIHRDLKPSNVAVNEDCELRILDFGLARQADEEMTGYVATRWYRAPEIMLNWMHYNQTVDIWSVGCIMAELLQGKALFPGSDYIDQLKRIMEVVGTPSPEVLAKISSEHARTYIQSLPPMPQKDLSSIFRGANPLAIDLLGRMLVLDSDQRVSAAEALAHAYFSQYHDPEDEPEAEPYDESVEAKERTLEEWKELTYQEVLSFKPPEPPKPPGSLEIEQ
Source text: (§1) The protein kinase complement of the human genome (the kinome) was described previously (Manning et al., 2002. Science 298(5600):1912-1934). Sequence accession numbers are defined by the International Protein Index (IPI) (Kersey et al., 2004. Proteomics 4(7):1985-1988).

[2] = biological target: T2, kinases (kinome) (Homo sapiens, UniProt O75716); conditions: MPSK1 (Other), IPI00915837
T2 construct: determined in kinobeads assays with mass spectrometry detection of kinases as described previously; endogenous in cells; host or cells: cell lysate
T2 sequence (O75716 whole entry): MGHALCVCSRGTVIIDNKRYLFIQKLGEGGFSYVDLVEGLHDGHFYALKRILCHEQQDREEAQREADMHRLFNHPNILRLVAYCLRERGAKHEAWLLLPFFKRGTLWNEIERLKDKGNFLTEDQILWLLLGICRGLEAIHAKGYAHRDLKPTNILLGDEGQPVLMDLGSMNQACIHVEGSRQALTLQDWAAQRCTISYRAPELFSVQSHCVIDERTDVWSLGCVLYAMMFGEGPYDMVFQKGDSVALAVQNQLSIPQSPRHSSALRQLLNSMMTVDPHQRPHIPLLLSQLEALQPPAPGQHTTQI
Source text: as §1

[3] = biological target: T3, kinases (kinome) (Homo sapiens, UniProt O15197); conditions: EphB6 (TK), IPI00005222
T3 construct: determined in kinobeads assays with mass spectrometry detection of kinases as described previously; endogenous in cells; host or cells: cell lysate
T3 sequence (O15197 32-1021): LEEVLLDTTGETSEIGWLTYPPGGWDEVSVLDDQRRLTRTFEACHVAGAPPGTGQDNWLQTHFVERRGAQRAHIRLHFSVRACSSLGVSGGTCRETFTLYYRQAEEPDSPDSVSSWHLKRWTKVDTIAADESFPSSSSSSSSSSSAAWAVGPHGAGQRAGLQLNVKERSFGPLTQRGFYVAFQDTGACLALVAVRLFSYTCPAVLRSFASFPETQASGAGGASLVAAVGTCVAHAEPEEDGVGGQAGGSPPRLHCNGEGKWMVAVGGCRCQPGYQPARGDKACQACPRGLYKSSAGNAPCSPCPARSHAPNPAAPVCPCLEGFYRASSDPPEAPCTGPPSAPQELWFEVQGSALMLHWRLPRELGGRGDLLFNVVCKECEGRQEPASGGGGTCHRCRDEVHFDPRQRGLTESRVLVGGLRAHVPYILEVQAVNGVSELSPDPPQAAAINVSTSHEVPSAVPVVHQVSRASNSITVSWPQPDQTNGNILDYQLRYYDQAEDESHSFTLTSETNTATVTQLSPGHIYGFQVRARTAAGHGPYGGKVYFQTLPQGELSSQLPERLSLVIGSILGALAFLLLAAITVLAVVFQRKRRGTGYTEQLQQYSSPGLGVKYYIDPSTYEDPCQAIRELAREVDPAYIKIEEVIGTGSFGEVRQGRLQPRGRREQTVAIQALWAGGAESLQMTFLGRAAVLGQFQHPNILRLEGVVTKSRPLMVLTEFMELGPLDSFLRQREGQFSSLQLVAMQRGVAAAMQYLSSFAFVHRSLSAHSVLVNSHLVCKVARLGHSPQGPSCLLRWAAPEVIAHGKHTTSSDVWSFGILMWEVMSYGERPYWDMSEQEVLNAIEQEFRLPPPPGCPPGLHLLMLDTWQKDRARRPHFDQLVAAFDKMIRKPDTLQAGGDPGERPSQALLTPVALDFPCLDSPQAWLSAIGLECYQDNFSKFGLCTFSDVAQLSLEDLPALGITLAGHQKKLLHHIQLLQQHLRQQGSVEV
Source text: as §1

[4] = biological target: T4, kinases (kinome) (Homo sapiens, UniProt P49759); conditions: CLK1 (CMGC), IPI00915761
T4 construct: determined in kinobeads assays with mass spectrometry detection of kinases as described previously; endogenous in cells; host or cells: cell lysate
T4 sequence (P49759 whole entry): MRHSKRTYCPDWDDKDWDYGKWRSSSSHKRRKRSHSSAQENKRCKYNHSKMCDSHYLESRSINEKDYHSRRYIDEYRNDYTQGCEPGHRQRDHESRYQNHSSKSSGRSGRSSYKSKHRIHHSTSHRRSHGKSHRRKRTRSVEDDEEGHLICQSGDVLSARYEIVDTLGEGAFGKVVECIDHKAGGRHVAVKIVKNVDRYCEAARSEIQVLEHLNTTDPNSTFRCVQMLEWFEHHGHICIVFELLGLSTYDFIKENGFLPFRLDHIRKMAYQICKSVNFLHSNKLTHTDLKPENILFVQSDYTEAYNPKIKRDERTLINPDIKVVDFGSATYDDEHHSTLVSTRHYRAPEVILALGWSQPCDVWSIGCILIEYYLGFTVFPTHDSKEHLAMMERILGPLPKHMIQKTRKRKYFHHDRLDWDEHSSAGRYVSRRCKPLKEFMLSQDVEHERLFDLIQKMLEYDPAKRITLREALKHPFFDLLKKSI
Source text: as §1

[5] = biological target: T5, kinases (kinome) (Homo sapiens, UniProt O14976); conditions: GAK (Other), IPI00298949
T5 construct: determined in kinobeads assays with mass spectrometry detection of kinases as described previously; endogenous in cells; host or cells: cell lysate
T5 sequence (O14976 1-1311): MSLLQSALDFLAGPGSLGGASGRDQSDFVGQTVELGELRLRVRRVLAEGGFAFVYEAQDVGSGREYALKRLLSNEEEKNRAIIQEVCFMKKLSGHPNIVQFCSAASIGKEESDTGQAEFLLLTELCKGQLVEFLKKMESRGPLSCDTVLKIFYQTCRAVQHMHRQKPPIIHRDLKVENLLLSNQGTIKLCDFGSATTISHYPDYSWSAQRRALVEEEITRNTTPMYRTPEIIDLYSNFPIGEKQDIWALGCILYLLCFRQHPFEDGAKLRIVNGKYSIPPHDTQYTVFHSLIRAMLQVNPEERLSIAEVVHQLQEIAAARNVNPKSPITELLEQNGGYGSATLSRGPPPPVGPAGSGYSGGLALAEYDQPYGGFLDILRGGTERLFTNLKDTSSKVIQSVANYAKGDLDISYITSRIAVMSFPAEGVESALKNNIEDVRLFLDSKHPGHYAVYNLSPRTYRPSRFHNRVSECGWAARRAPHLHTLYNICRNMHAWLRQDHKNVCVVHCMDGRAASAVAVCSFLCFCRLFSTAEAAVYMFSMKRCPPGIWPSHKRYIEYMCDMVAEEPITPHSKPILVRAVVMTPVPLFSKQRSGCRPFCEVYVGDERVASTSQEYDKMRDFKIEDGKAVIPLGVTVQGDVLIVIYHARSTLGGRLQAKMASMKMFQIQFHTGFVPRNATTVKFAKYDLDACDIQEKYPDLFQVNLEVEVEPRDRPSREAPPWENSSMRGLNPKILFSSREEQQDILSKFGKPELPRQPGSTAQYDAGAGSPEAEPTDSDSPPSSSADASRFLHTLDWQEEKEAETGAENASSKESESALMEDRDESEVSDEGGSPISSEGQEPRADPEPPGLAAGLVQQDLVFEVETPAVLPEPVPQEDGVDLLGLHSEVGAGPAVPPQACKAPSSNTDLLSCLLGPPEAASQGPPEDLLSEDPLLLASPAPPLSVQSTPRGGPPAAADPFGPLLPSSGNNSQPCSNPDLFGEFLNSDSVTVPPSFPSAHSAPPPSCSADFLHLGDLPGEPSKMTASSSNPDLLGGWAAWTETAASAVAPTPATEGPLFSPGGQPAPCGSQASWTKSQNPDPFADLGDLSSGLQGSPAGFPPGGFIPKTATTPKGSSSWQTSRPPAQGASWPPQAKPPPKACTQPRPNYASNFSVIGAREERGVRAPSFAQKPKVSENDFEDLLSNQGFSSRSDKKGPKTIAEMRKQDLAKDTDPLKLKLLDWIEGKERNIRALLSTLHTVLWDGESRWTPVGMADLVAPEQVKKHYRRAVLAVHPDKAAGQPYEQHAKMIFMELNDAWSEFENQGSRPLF
Source text: as §1

[6] = biological target: T6, kinases (kinome) (Homo sapiens, UniProt Q9BYT3); conditions: STK33 (CAMK), IPI00302351
T6 construct: determined in kinobeads assays with mass spectrometry detection of kinases as described previously; endogenous in cells; host or cells: cell lysate
T6 sequence (Q9BYT3 whole entry): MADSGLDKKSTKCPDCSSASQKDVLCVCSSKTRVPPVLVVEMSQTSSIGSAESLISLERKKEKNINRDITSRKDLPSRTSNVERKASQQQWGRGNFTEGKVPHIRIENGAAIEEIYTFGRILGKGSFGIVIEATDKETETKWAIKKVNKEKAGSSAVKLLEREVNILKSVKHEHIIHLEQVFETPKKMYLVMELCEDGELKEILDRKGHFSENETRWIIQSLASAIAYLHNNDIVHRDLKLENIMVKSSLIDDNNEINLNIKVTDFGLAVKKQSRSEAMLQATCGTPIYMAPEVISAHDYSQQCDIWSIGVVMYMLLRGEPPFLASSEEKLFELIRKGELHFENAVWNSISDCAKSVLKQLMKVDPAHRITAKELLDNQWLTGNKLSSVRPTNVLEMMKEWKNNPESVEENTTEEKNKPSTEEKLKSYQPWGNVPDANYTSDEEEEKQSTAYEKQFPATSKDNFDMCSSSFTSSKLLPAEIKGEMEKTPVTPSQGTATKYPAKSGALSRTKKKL
Source text: as §1

[7] = biological target: T7, kinases (kinome) (Homo sapiens, UniProt P06493); conditions: CDC2 (CMGC), IPI00026689
T7 construct: determined in kinobeads assays with mass spectrometry detection of kinases as described previously; endogenous in cells; host or cells: cell lysate
T7 sequence (P06493 whole entry): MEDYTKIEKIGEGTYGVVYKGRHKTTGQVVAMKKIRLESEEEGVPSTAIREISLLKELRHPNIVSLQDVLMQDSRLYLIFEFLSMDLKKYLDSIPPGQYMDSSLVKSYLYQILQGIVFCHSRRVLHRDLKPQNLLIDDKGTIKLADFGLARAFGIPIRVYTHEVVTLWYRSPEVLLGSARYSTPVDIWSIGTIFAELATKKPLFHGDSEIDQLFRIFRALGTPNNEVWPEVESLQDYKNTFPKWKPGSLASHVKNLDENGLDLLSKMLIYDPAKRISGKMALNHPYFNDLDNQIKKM
Source text: as §1

[8] = biological target: T8, kinases (kinome) (Homo sapiens, UniProt O75676); conditions: MSK2 (AGC), IPI00022536
T8 construct: determined in kinobeads assays with mass spectrometry detection of kinases as described previously; endogenous in cells; host or cells: cell lysate
T8 sequence (O75676 whole entry): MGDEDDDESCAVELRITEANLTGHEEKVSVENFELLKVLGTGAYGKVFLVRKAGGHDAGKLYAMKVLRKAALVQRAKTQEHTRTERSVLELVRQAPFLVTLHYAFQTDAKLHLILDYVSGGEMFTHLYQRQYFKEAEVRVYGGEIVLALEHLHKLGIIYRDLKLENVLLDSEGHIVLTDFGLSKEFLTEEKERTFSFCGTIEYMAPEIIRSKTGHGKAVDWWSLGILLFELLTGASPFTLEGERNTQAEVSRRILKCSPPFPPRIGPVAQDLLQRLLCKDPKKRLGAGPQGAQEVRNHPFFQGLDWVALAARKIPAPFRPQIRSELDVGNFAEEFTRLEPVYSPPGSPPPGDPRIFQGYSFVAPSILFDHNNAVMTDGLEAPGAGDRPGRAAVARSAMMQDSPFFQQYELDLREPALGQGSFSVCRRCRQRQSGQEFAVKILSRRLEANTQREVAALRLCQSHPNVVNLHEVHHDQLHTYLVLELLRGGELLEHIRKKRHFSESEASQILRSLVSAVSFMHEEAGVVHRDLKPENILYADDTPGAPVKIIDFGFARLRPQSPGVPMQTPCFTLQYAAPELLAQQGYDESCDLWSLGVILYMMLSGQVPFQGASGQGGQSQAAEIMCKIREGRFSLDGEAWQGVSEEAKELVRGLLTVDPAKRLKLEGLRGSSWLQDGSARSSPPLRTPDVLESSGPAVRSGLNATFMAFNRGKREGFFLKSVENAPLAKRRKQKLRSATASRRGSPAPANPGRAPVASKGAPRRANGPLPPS
Source text: as §1

| IC50 [1] | IC50 [2] | IC50 [3] | IC50 [4] | IC50 [5] | IC50 [6] | IC50 [7] | IC50 [8] | SMILES |
| --- | --- | --- | --- | --- | --- | --- | --- | --- |
| > 10 µM | > 10 µM | > 10 µM |  |  |  |  |  | C[C@H]1COCCN1c1cc(-c2ccccc2S(C)(=O)=O)nc(-c2ccc(NC(=O)NC3CC3)cc2)n1 [Example 6, (S)-1-cyclopropyl-3-(4-(4-(3-methylmorpholino)-6-(2-(methylsulfonyl)phenyl)pyrimidin-2-yl)phenyl)urea] |
|  |  |  | > 10 µM |  |  |  |  | CCNC(=O)Nc1ccc(-c2cc(-c3ccccc3C#N)nc(N3CCOC[C@@H]3C)n2)cc1 [Example 8, (S)-1-(4-(6-(2-cyanophenyl)-2-(3-methylmorpholino)pyrimidin-4-yl)phenyl)-3-ethylurea] |
| > 10 µM | > 10 µM | > 10 µM |  | > 10 µM | > 10 µM | > 10 µM |  | C[C@H]1COCCN1c1nc(-c2ccc(NC(=O)NC3CC3)cc2)cc(-c2ccccc2S(C)(=O)=O)n1 [Example 4, (S)-1-cyclopropyl-3-(4-(2-(3-methylmorpholino)-6-(2-(methylsulfonyl)phenyl)pyrimidin-4-yl)phenyl)urea] |
|  |  | > 10 µM | > 10 µM | > 10 µM | > 10 µM | > 10 µM | > 10 µM | C[C@H]1COCCN1c1nc(-c2ccc(NC(=O)NC3CC3)cc2)cc(-c2cccnc2S(C)(=O)=O)n1 [Example 46, (S)-1-cyclopropyl-3-(4-(2-(3-methylmorpholino)-6-(2-(methylsulfonyl)pyridin-3-yl)pyrimidin-4-yl)phenyl)urea] |
|  | > 10 µM |  |  | > 10 µM |  | > 10 µM |  | C[C@H]1COCCN1c1nc(-c2ccc(NC(=O)N[C@H]3CCC[C@@H]3O)cc2)cc(-c2cc(F)ccc2S(C)(=O)=O)n1 [Example 76, 1-(4-(6-(5-fluoro-2-(methylsulfonyl)phenyl)-2-((S)-3-methylmorpholino)pyrimidin-4-yl)phenyl)-3-((1S,2S)-2-hydroxycyclopentyl)urea] |
| > 10 µM |  |  | > 10 µM | > 10 µM |  |  | > 10 µM | C[C@H]1COCCN1c1cc(-c2ccccn2)nc(-c2ccc(NC(=O)NCCO)cc2)n1 [Example 43, (S)-1-(2-hydroxyethyl)-3-(4-(4-(3-methylmorpholino)-6-(pyridin-2-yl)pyrimidin-2-yl)phenyl)urea] |
|  |  | > 10 µM | > 10 µM | > 10 µM | > 10 µM | > 10 µM | > 10 µM | C[C@H]1COCCN1c1nc(-c2ccc(NC(=O)NC3CC3)cc2)cc(-c2cc(F)ccc2S(C)(=O)=O)n1 [Example 40, (S)-1-cyclopropyl-3-(4-(6-(5-fluoro-2-(methylsulfonyl)phenyl)-2-(3-methylmorpholino)pyrimidin-4-yl)phenyl)urea] |
